Laboratory results: patent publication US6207655A, “Bis-phosphonate confugates with alkylating moieties having antitumor activity” (Novuspharma S.p.A., priority 1997, dated 2001)

Key:
[1] = system: murine breast carcinoma Walker 256/B; test: antitumor activity in vivo against Walker 256/B implanted intratibia (TWI%); set-up: species or system murine tumor; male rats CD1; conditions: it/iv, days 1, 4, 7; for TWI % (tumor weight inhibition %): measured day 14; for Tox: Walker 256/B
From the text: The compounds of the invention have been tested "in vivo" against the murine breast carcinoma Walker 256/B implanted intratibia (it). After inoculation into the bone marrow cavity of the tibia, this tumor grows inside the bone causing osteolytic lesions, paraneoplastic hypercalcaemia and by invading the surrounding tissues it forms a measurable tumor mass. It is therefore possible to determine both the antitumor activity on the extraosseous tumor and the anti-osteolytic effect (Cancer, 72(1), 91 (1993)).
The Walker 256/B tumor was provided by NCI Frederick Cancer Facility and was maintained in male rats CD1 by means of subcutaneous transplantation of tumor fragments of about 1 cm diameter every 10 days.
To perform the experiment, each rat was injected it with 2.5×10^6tumor cells; all the animals were anesthetized with a mixture of 10 mg/kg of Ketalar (Park-Davis) and 5 mg/kg of Rompun (Bayer). After implantation inside the tibia, the tumor grows causing osteolytic lesions associated with an increased activity of the osteoclasts. To obtain an injectable cell suspension, the tumor fragments were decomposed by means of enzymatic digestion with type IV collagenases (Sigma) at a concentration of 400 U/ml for 20 minutes at 37° C.
The compounds of the invention have been administered i.v. at days 1, 4 and 7 after the tumor transplantation. The extraosseous tumor mass has been measured at day 14 after tumor transplantation. The antitumor activity was determined as TWI% (tumor weight inhibition %) calculated according to the following formula:
TWI%=(100-TW meantreated animals /TW meancontrols)×100
wherein the TW for each animal is given by the formula: […]
in which a and b are respectively the maximum and minimum diameter of the tumor mass, expressed in mm.

[2] = system: human multiple myeloma HS-Sultan cells; test: experimental model of human multiple myeloma HS-Sultan, mean survival time; assay type: in vivo, human cells in SCID rats; conditions: iv/iv, days +15, 18, 21; for TMS (MST = Mean Survival Time in days from the tumor inoculation): controls: MST 33-37; for Tox: HS-Sultan
Experimental: (§1) The experiment is performed by inoculating intravenously (i.v.) the human multiple myeloma HS-Sultan cells in SCID rats (immunodeficient rats) at day 0, followed by treatment i.v. with a compound of the invention at days 15, 18 and 21.
The activity of the compounds of the invention was evaluated in relationship with the following parameters:
Mean Survival Time (MST) in comparison with the not treated rats (which have a mean survival time of 30 days after tumor inoculation);

[3] = system: human multiple myeloma HS-Sultan cells; test: histopathological examination of tumor infiltration in the human multiple myeloma model; assay type: in vivo, human cells in SCID rats; set-up: key to tumor infiltration score: -: absence of infiltration; +: slight infiltration; ++: middle to high infiltration; conditions: for tumor infiltration score: 38 days from the treatment; for effect on the tumor infiltration (in words): human multiple myeloma model
Experimental: as §1
evaluation of histological parameters (bone marrow invasion and degree of osteolytic lesions).

multiple myeloma = conditions: background statement; cited from earlier work

O=C(C=C(C(=O)O)C(P(=O)(O)O)P(=O)(O)O)NC(Cc1ccc(N(CCCl)CCCl)cc1)C(=O)O (stereo not drawn) [compound (B)]
TWI % (tumor weight inhibition %) ([1]; 20 mg/kg): 89%
Tox ([1]; 20 mg/kg): 0/8
TMS (MST = Mean Survival Time in days from the tumor inoculation) ([2]; 60 mg/kg): 70 days
Tox ([2]; 60 mg/kg): 1/6
tumor infiltration score ([3]; Backbone (soft tissues), (B) oO mg/kg): -
tumor infiltration score ([3]; Backbone, (B) oO mg/kg): -
tumor infiltration score ([3]; Hind limbs (soft tissues), (B) oO mg/kg): -
tumor infiltration score ([3]; Hind limbs, (B) oO mg/kg): -
tumor infiltration score ([3]; Kidneys, (B) oO mg/kg): +
tumor infiltration score ([3]; Sternum, (B) oO mg/kg): -
effect on the tumor infiltration (in words) [3]: selective inhibitory effect on the tumor infiltration

N[C@@H](Cc1ccc(N(CCCl)CCCl)cc1)C(=O)O [melphalan]
TWI % (tumor weight inhibition %) ([1]; 2.8 mg/kg): 71%
Tox ([1]; 2.8 mg/kg): 11/144
TMS (MST = Mean Survival Time in days from the tumor inoculation) ([2]; 6 mg/kg): 59 days
Tox ([2]; 6 mg/kg): 1/5
tumor infiltration score ([3]; Backbone (soft tissues), melfalan 6 mg/kg): -
tumor infiltration score ([3]; Backbone, melfalan 6 mg/kg): +
tumor infiltration score ([3]; Hind limbs (soft tissues), melfalan 6 mg/kg): -
tumor infiltration score ([3]; Hind limbs, melfalan 6 mg/kg): +
tumor infiltration score ([3]; Kidneys, melfalan 6 mg/kg): -
tumor infiltration score ([3]; Sternum, melfalan 6 mg/kg): +
effect on the tumor infiltration (in words) [3]: cannot be seen
activity against the multiple myeloma (in words) (multiple myeloma): exploits activity against the multiple myeloma
cure of the secondary bone tumor (in words) (multiple myeloma): not able to cure the secondary bone tumor
